Where a name gives a salt, the structure may show the parent alone.
Experiments:
[1] = test system: Ctrl and APP/PS1 (AD) mice; test: Marble burying (MB); type: in vivo; settings: for percentage of marbles buried: 2-month-old female AD mice
Experimental: The MB assay was conducted in a clean cage (10.5 in×5.5 in) containing soft pliable Beta Chip bedding (Northeastern Products Corp, Warrensburg, NY). The cage contained 16 marbles set up in 4 rows of 4 across. Mice were given 20 minutes to explore and bury. At the end of the assay, the percentage of marbles buried was calculated.

[2] = test system: Ctrl and APP/PS1 (AD) mice; test: Contextual fear conditioning (CFC), 3-shock; type: in vivo; settings: for memory retrieval: 2-month-old male AD mice; for learning (freezing during training): male AD mice
Experimental: A 3-shock CFC paradigm was administered as previously described (Denny et al., 2014; Drew et al., 2010). Fear conditioning was conducted in chambers obtained from Coulborn Instruments (Allentown, PA) with internal dimensions of approximately 20 cm wide×16 cm deep×20.5 cm high. The chambers had metal walls on each side, clear plastic front and back walls and ceilings, and stainless-steel bars on the floor. A house light (CM1820 bulb, 28 V, 100 mA) mounted directly above the chamber provided illumination. Each chamber was located inside a larger, insulated, plastic cabinet that provided protection from outside light and noise. Each cabinet contained a ventilation fan that was operated during the sessions. A paper towel dabbed with lemon solution was placed underneath the chamber floor. Mice were held outside the experimental room in their home cages prior to testing and transported to the conditioning apparatus individually in standard mouse cages. Chambers were cleaned with 70% EtOH between each set of mice. Training sessions were conducted using a 3-shock protocol. Mice were placed into the conditioning chamber and received shocks at 180 s, 240 s, and 300 s (2 s duration each, 0.75 mA). Fifteen seconds after the last shock, mice were removed from the chamber. Overall, the training session lasted 317 s. […] All sessions were scored for freezing using FreezeFrame4 (Actimetrics, Wilmette, IL).

[3] = test system: 5xFAD mouse model of Alzheimer's disease (AD); settings: Giannoni et al., 2013; cited from earlier work
[4] = test system: Ctrl and APP/PS1 (AD) mice; settings: male Ctrl mice; single injection; compared to Ctrl mice
Experimental: The APP/PS1 (AD) mice were previously bred with the ArcCreER^T2×enhanced yellow fluorescent protein (EYFP) mice (Denny et al., 2014; Perusini et al., 2017). Female and male mice were used in all experiments. The Ctrl mice were APP/PS1 (−)×ArcCreER^T2 (+) or (−)×EYFP (+/−), and the AD mice were APP/PS1 (+)×ArcCreER^T2 (+) or (−)×EYFP (+/−). Mice were housed 4-5 per cage in a 12-h (06:00-18:00) light-dark colony room at 22° C. Mice had ad libitum access to food and water.
All drugs were resuspended in saline and made fresh for each experiment. […] These dosages were chosen based upon previous studies (Brachman et al., 2016; Chen et al., 2020a). […] All drugs were prepared in physiological saline and administered intraperitoneally (i.p.) in volumes of 0.1 cc per 10 mg body weight.
Testing was performed as previously described (Brachman et al., 2016; Chen et al., 2020a). Briefly, the testing apparatus consisted of a plastic box (50×50×20 cm). The floor was covered with approximately 2 cm of wooden bedding and the arena was brightly lit (approximately 1000 lux). […] The latency of the mice to begin eating was recorded. Immediately after the latency was recorded, the food pellet was removed from the arena. The mice were then placed into their home cage and the amount of food consumed in 5 min was measured (home cage consumption), followed by an assessment of post-restriction weight. […]

[5] = mouse, in vivo
[6] = biological target: hERG (human Ether-a-go-go Related Gene) channels (Homo sapiens, UniProt Q12809); settings: cited from earlier work
Chain of hERG (human Ether-a-go-go Related Gene) channels (Q12809 whole entry): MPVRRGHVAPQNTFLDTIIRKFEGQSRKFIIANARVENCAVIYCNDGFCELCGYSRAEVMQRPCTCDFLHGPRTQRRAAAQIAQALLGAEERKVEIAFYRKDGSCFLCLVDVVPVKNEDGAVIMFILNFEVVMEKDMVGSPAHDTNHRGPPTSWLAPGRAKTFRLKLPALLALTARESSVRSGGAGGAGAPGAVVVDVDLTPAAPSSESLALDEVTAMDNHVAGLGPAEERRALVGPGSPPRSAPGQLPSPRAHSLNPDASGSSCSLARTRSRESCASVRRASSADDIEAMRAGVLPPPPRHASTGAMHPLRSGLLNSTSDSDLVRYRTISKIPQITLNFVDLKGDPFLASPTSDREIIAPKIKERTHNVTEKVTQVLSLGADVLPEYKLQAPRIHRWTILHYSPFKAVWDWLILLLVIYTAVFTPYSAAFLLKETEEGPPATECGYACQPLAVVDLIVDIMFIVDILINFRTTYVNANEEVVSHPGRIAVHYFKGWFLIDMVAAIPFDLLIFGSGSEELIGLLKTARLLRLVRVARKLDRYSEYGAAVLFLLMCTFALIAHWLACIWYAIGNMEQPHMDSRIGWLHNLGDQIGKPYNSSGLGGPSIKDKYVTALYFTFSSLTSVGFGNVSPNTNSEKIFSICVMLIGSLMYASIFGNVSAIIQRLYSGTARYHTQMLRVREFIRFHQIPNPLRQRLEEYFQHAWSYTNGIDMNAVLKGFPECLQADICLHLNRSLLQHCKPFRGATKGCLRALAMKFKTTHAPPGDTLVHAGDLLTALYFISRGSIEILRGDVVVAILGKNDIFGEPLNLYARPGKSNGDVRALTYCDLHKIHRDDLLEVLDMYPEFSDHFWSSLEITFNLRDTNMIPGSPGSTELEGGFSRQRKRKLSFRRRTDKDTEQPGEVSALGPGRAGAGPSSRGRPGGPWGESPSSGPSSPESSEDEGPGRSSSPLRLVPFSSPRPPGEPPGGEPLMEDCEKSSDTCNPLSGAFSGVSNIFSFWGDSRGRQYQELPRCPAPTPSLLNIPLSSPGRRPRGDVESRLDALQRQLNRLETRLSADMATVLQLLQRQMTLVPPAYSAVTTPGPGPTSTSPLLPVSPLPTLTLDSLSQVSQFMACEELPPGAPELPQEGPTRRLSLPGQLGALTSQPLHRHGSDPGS

| SMILES | perseverative behavior (number of marbles buried) ([1]; female Ctrl mice, prophylactic administration, FIG. 3) | memory retrieval ([2]; 1×(R,S)-ketamine 30 mg/kg) | learning (freezing during training) ([2]; single injection) | freezing during training ([2]; male Ctrl mice, single injection, compared to other groups) | behavioral deficits [3] | hippocampal astrogliosis and microgliosis [3] | number of amyloid plaques and level of amyloid beta (Aβ) species [3] | percentage of marbles buried ([1]; 7×prucalopride 1.5 mg/kg) | percentage of marbles buried ([1]; 7×prucalopride 3 mg/kg) | memory retrieval ([2]; 7×prucalopride 3 mg/kg) | latency to feed in home cage [4] | weight and weight loss [5] | affinity for the hERG channels [6] |
| --- | --- | --- | --- | --- | --- | --- | --- | --- | --- | --- | --- | --- | --- |
| CNC1(c2ccccc2Cl)CCCCC1=O (racemic) [(R,S)-ketamine, (RS)-2-(2-chlorophenyl)-2-(methylamino)cyclohexanone] | decreased | improved | Neither (R,S)-ketamine nor prucalopride, whether administered solely or jointly, affected learning | increased |  |  |  |  |  |  |  |  |  |
| CCCCN1CCC(CCC(=O)c2cc(Cl)c(N)cc2OC)CC1.Cl [RS-67,333, 1-(4-amino-5-chloro-2-methoxyphenyl)-3-[1(n-butyl)-4-piperidinyl]-1-propanone HCl] |  |  |  |  | effective in improving | decreasing | decreasing |  |  |  |  |  |  |
| COCCCN1CCC(NC(=O)c2cc(Cl)c(N)c3c2OCC3)CC1 [prucalopride, 4-amino-5-chloro-2,3-dihydro-N-[1-3-methoxypropyl)-4-piperidinyl]-7-benzofuran carboxamide monohydrochloride] |  |  | Neither (R,S)-ketamine nor prucalopride, whether administered solely or jointly, affected learning |  |  |  |  | decreased | decreased | improved | more quickly | neither weight nor weight loss was impacted | no affinity |

Source: US20250213564A1, “COMPOSITIONS AND METHODS FOR THE TREATMENT OF ALZHEIMER'S DISEASE AND OTHER NEUROGENERATIVE DISEASE” (priority 2022, published 2025)
